Laboratory results taken from article PMC7011974, “Benzimidazole derivatives endowed with potent antileishmanial activity” (Journal of Enzyme Inhibition and Medicinal Chemistry, 2017).
Where two headings read alike, the source gives them in different places.

Tests used:
L. tropica promastigotes = experiment: Antileishmanial activity on L. tropica promastigotes (MTT); assay type: cell-based, Leishmania tropica; conditions: for IC50: 72 h, read-out: IC50 (µM) L. tropica
[1] = tested on: L. infantum promastigotes; experiment: Antileishmanial activity on L. infantum promastigotes (MTT); assay type: cell-based, Leishmania infantum; conditions: for IC50: Leishmania infantum, 72 h, read-out: IC50 (µM) L. infantum
[2] = tested on: human microvascular endothelial cell line (HMEC-1); experiment: Cytotoxicity on HMEC-1 cells (MTT); assay type: cell-based; conditions: for IC50: cytotoxicity, HMEC-1 cells, MTT; for SI L. infantum (IC50 HMEC-1/IC50 L. infantum) / SI L. tropica (IC50 HMEC-1/IC50 L. tropica): selectivity index
[3] = Leishmania tropica, promastigotes, MTT, starred values mean of two experiments
[4] = promastigotes of L. tropica and/or L. infantum
[5] = fold potency versus miltefosine
[6] = percent of amphotericin B potency, calculated for each experiment
[7] = promastigotes, MTT, starred values mean of two experiments

Compound | IC50 (L. tropica promastigotes; [3]) [µM] | IC50 ([1]; promastigotes, MTT) [µM] | melting point [°C] | Ratio IC50 miltef./IC50 compd., L. tropica (L. tropica promastigotes; [5]) | IC50 amph. B ×100/IC50 compd., L. tropica (L. tropica promastigotes; [6]) | Ratio IC50 miltef./IC50 compd., L. infantum [1, 5] | IC50 amph. B ×100/IC50 compd., L. infantum [1, 6] | IC50 ([2]; Homo sapiens) [µM] | SI L. infantum (IC50 HMEC-1/IC50 L. infantum) [2] | SI L. tropica (IC50 HMEC-1/IC50 L. tropica) [2] | also measured
C[n+]1c(-c2ccc(Cl)cc2)n(C[C@@H]2CCC[N+]3(C)CCCC[C@H]23)c2ccc(C(F)(F)F)cc21 (stereo partly drawn) [Compound 39, 2-(4-Chlorophenyl)-3-methyl-1-{[5-methylammonio-(1 S,9aR)-octahydroquinolizin-1-yl]-methyl}-5-trifluoromethyl-1 H-benzimidazol-3-ium diiodide] | > 27 | > 27 | 165 to 169 |  |  |  |  |  |  |  | Antileishmanial activity in words (L. tropica promastigotes; [4]): inactive
CCCCCCCCCCCCCCCc1n(C)c2ccc(C(F)(F)F)cc2[n+]1C.[I-] [Compound 9, 1,3-Dimethyl-2-pentadecyl-5-trifluoromethyl-1 H-benzimidazol-3-ium iodide] | 0.87 ± 0.16 | 1.32 ± 0.3 | 116 to 118 | 49.7 | 11.9 | 23.7 | 8.9 | 1.86 ± 0.34 | 1.41 | 2.14 | 
CCCCCCCCCCCCCCCc1nc2ccccc2n1C [Compound 7, 1-Methyl-2-pentadecyl-1H-benzimidazole] | > 58 | > 58 | 64.2 to 65.6 |  |  |  |  |  |  |  | Antileishmanial activity in words (L. tropica promastigotes; [4]): inactive
CCCCCCCCCCCc1n(C)c2ccccc2[n+]1C.[I-] [Compound 3, 1,3-Dimethyl-2-undecyl-1 H-benzimidazol-3-ium iodide] | 1.68 | 0.28 ± 0.07 | 157.3 to 161.3 | 25.8 | 4.9 | 111.6 | 55.7 | 2.64 ± 0.49 | 9.43 | 1.57 | 
CCCCCCCCCCCCCCCc1n(C)c2ccccc2[n+]1Cc1ccccc1.[Cl-] [Compound 14, 3-Benzyl-1-methyl-2-pentadecyl-1 H-benzimidazol-3-ium chloride] | 0.49 | 0.64 ± 0.01 | 215.7 to 219.3 | 88.3 | 16.7 | 48.8 | 24.4 | 0.91 ± 0.19 | 1.42 | 1.86 | 
CCCC(CCC)c1nc2ccccc2[nH]1 [Compound 18, 2-(Heptan-4-yl)-1 H-benzimidazole] | 11.1 ± 2.73 | > 39.6 | 224.7 to 225.8 | 3.9 | 1.07 |  |  | 65.1 ± 12.2 |  | 5.87 | 
CCN(CC)CCCn1c(Cc2ccc(OC)cc2)nc2cc(C(C)=O)ccc21 [Compound 25] |  |  |  |  |  |  |  |  |  |  | Antileishmanial activity in words (L. tropica promastigotes): inactive; IC50 (L. tropica promastigotes; Leishmania tropica): > 51 µM; IC50 [1]: > 51 µM
CCCCCCCCCCCCCCCc1n(C)c2ccc([N+](=O)[O-])cc2[n+]1C.[I-] [Compound 10, 1,3-Dimethyl-5-nitro-2-pentadecyl-1 H-benzimidazol-3-ium iodide] | 1.4 ± 0.58 | 0.96 ± 0.17 | 154 to 156 | 30.9 | 7.35 | 32.6 | 12.3 | 2.11 ± 0.45 | 2.20 | 1.51 | 
CCCCCCCCCCCCCCCc1n(C[c-]2cccc2)c2ccccc2[n+]1C.[Fe+2].[I-].c1cc[cH-]c1 [Compound 17, 1-(Ferrocenylmethyl)-3-methyl-2-pentadecyl-1 H-benzimidazol-3-ium iodide] |  |  |  | 12.2 | 3.34 |  |  |  |  | 0.35 | IC50 (L. tropica promastigotes; [7]): 3.56 ± 0.84 µM; IC50 [2]: 1.26 ± 0.24 µM
CCCCCCCCCCCCCCCc1n(C)c2ccccc2[n+]1CCC.[I-] [Compound 12, 1-Methyl-2-pentadecyl-3-propyl-1H-benzimidazol-3-ium iodide] | 0.51 | 0.42 ± 0.14 | 144.7 to 147.4 | 84.8 | 16.1 | 74.4 | 37.1 | 0.73 ± 0.37 | 1.74 | 1.43 | 
CCCCCCCCCCCCCCCc1nc2ccccc2[nH]1 [Compound 6, 2-Pentadecyl-1 H-benzimidazole] | 5.05 ± 0.01 | 10.1 ± 4.9 | 88.8 to 94.2 | 8.6 | 1.6 | 3.1 | 0.93 | > 37 |  |  | 
CCCC(CCC)c1n(C)c2ccccc2[n+]1C.[I-] [Compound 20, 1,3-Dimethyl-2-(heptan-4-yl)-1 H-benzimidazol-3-ium iodide] | > 73 |  | 192.2 to 192.9 |  |  |  |  | > 73 |  |  | Antileishmanial activity in words (L. tropica promastigotes; [4]): inactive
CCCC(CCC)c1nc2ccccc2n1C [Compound 19, 2-(Heptan-4-yl)-1-methyl-1 H-benzimidazole] | 30 ± 10.3 |  |  | 1.4 | 0.40 |  |  | > 74 |  | >2.43 | 
CCCCCCCCCCCCCCCc1n(C)c2cc(Cl)c(Cl)cc2[n+]1C.[I-] [Compound 11, 5,6-Dichloro-1,3-dimethyl-2-pentadecyl-1 H-benzimidazol-3-ium iodide] | 1.06 ± 0.54 | 0.84 ± 0.13 | 200 to 203 | 40.8 | 9.1 | 37.2 | 14.1 | 1.68 ± 0.75 | 2.00 | 1.58 | 
COc1ccc(Cc2nc3cc(C(C)=O)ccc3n2C[C@@H]2CCCN3CCCC[C@H]23)cc1 [Compound 31] |  |  |  |  |  |  |  |  |  |  | IC50 amph. B ×100/IC50 compd., L. tropica (L. tropica promastigotes): 0.74; Ratio IC50 miltef./IC50 compd., L. tropica (L. tropica promastigotes): 1.8; IC50 (L. tropica promastigotes; Leishmania tropica): 23.9 ± 7.78 µM; IC50 amph. B ×100/IC50 compd., L. infantum [1]: 0.73; Ratio IC50 miltef./IC50 compd., L. infantum [1]: 1.1; IC50 [1]: 28.5 ± 4.47 µM
CCCCCCCCCCCc1nc2ccccc2[nH]1 [Compound 1, 2-Undecyl-1 H-benzimidazole] | > 16.2 |  | 108.1 to 109.3 |  |  |  |  | 51 ± 7.5 |  |  | Antileishmanial activity in words (L. tropica promastigotes; [4]): inactive
CCCCCCCCCCCc1nc2ccccc2n1C [Compound 2, 1-Methyl-2-undecyl-1H-benzimidazole] |  |  | 40.8 to 43.4 |  |  |  |  |  |  |  | 
CCCCCCCCCCCc1n(Cc2ccccc2)c2ccccc2[n+]1Cc1ccccc1.[Cl-] [Compound 5, 1,3-Dibenzyl-2-undecyl-1H-benzimidazol-3-ium chloride] | 0.78 | 0.61 ± 0.05 | 223.3 to 225.3 | 55.5 | 10.5 | 51.3 | 25.6 | 1.38 ± 0.17 | 2.26 | 1.77 | 
CCCCCCCCCCCCCCCc1nc2ccccc2n1Cc1ccccc1 [Compound 13, 1-Benzyl-2-pentadecyl-1H-benzimidazole] | > 11.9 | > 11.9 | 60.7 to 61.8 |  |  |  |  | > 47 |  |  | Antileishmanial activity in words (L. tropica promastigotes; [4]): inactive
Cn1c(Cc2ccc(Cl)cc2)[n+](C)c2ccccc21.[I-] [Compound 21, 2-(4-Chlorobenzyl)-1,3-dimethyl-1 H-benzimidazol-3-ium iodide] | > 50 | > 50 | 94 to 98 |  |  |  |  |  |  |  | Antileishmanial activity in words (L. tropica promastigotes; [4]): inactive
CCCCCCCCCCCCCCCc1n(Cc2ccccc2)c2ccccc2[n+]1Cc1ccccc1.[Cl-] [Compound 15, 1,3-Dibenzyl-2-pentadecyl-1 H-benzimidazol-3-ium chloride] | 1.61 ± 0.15 | 3.26 ± 0.8 | 214.9 to 216.3 | 26.9 | 5.1 | 9.6 | 2.9 | 0.94 ± 0.17 | 0.29 | 0.60 | 
CCCCCCCCCCCCCCCc1nc2ccccc2n1C[c-]1cccc1.[Fe+2].c1cc[cH-]c1 [Compound 16, 1-(Ferrocenylmethyl)-2-pentadecyl-1 H-benzimidazole] |  |  |  |  |  |  |  |  |  |  | Antileishmanial activity in words (L. tropica promastigotes; [4]): inactive; IC50 (L. tropica promastigotes; [7]): > 35 µM; IC50 [2]: > 35 µM
CC(=O)c1ccc2c(c1)nc(Cc1ccccc1)n2C[C@@H]1CCCN2CCCC[C@H]12 [Compound 29] | 23.7 ± 8.54 | 28.5 ± 8.66 |  | 1.8 | 0.75 | 1.1 | 0.73 |  |  |  | 
Cn1c(Cc2ccc(Cl)cc2)[n+](C)c2cc(C(F)(F)F)ccc21.[I-] [Compound 22, 2-(4-Chlorobenzyl)-1,3-dimethyl-5-trifluoromethyl-1 H-benzimidazol-3-ium iodide] | 33.9 ± 12.6 | 16.7 ± 7.07 | 60 | 1.3 | 0.30 | 1.9 | 0.70 |  |  |  | 
